Reference: patent US20020137929A1, “1 - (3-heterocyclylphenyl) isothiourea, -isourea, -guanidine and -amidine herbicidal agents” (Intellectual Property Department, BASF Aktiengesellschaft, priority 1998, published 2002)

Key:
ABUTH (Velvetleaf) [1] = test: Postemergence herbicidal evaluation; format: in vivo, Abutilon theophrasti; details: postemergence
Procedure, shortened: (§1)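 Herbicidal effect was judged by eye on a 0–9 scale covering stand, vigor, deformity, size and chlorosis, compared with controls, four to five weeks after seedlings about two weeks old were sprayed (40 psi, ~0.0156–0.500 kg/ha).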

AMBEL (Ragweed, Common) = test: Postemergence herbicidal evaluation; format: in vivo, Ambrosia artemisifolia; details: postemergence
Procedure, shortened: as §1

ECHCG (Barnyardgrass) = test: Postemergence herbicidal evaluation; format: in vivo, Echinochloa crus-galli; details: postemergence
Procedure, shortened: as §1

SETVI (Foxtail, Green) [2] = test: Postemergence herbicidal evaluation; format: in vivo, Setaria viridis; details: postemergence
Procedure, shortened: as §1

[3] = test system: GLXMAW (Soybean, Williams); test: Postemergence herbicidal evaluation; format: in vivo, Glycine max, (L.) Merr. cv Williams; details: postemergence
Procedure, shortened: as §1

ORYSAT (Rice, Tebonnet) = test: Postemergence herbicidal evaluation; format: in vivo, Oryza sativa, (L.) Tebonnet; details: postemergence
Procedure, shortened: as §1

[4] = test system: TRZAWR (Wheat, Winter, cv Riband); test: Postemergence herbicidal evaluation; format: in vivo, Triticum aestivum; details: postemergence
Procedure, shortened: as §1

ABUTH (Velvetleaf) [5] = test: Preemergence herbicidal evaluation; format: in vivo, Abutilon theophrasti; details: rated 4-5 weeks after treatment
Procedure, shortened: (§2)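 Test compound, dissolved in aqueous acetone, was sprayed over planted soil cups at an equivalent of about 0.0156 to 0.500 kg/ha; seeds had been mixed with potting soil. Greenhouse growth followed, with visual 0-9 scoring of injury at four to five weeks.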

CASOB (Sicklepod) = test: Preemergence herbicidal evaluation; format: in vivo, Cassia obtusifolia; details: rated 4-5 weeks after treatment
Procedure, shortened: as §2

SETVI (Foxtail, Green) [6] = test: Preemergence herbicidal evaluation; format: in vivo, Setaria viridis; details: rated 4-5 weeks after treatment
Procedure, shortened: as §2

MOOVA (Monochoria) = test: Preemergence weed control under flooded paddy conditions; format: in vivo, Monochoria vaginalis; details: rated 3-4 weeks after treatment
Procedure, shortened: (§3)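 Silt loam, seeds in top 0.5 cm; flood held 1.5-3 cm; test cpd as acetone/water 50/50 into flood water, ~0.0313-0.500 kg/ha a.i.; greenhouse 3-4 wk; visual 0-9 score vs control.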

[7] = test system: SAGPY (Arrowhead (Pygmaea)); test: as above; format: in vivo, Sagittaria pygmaea; details: rated 3-4 weeks after treatment
Procedure, shortened: as §3

CYPIR (Rice Flatsedge) = test: Postemergence weed control under flooded paddy conditions; format: in vivo, Cyperus iria; details: postemergence weeds, rated 3 to 4 weeks after treatment
Procedure, shortened: (§4)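 Flood-water application, about 0.0313–0.500 kg/ha a.i. in aqueous/acetone 50/50 v/v; water depth 1.5–3 cm throughout. Weeds 3–5 cm, rice 1.5–2.5 leaf. Greenhouse; 0–9 visual rating vs control at 3–4 wk.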

[8] = test system: SAGPY (Arrowhead (Pygmaea)); test: as above; format: in vivo, Sagittaria pygmaea; details: postemergence weeds, rated 3 to 4 weeks after treatment
Procedure, shortened: as §4

## C=CCN1C(=O)C(CC(=O)OC(C)C)SC1=Nc1cc(-n2c(=O)cc(C(F)(F)F)n(C)c2=O)c(F)cc1Cl (centres unmarked) [Compound 66, Isopropyl 3-allyl-2-{{2-chloro-5-[3,6-dihydro-3-methyl-2,6-dioxo-4-(trifluoromethyl)-1(2H)-pyrimidinyl]-4-fluorophenyl}imino}-4-oxo-5-thiazolidineacetate]
ABUTH (Velvetleaf) [1]; rate 0.0158 kg/ha
  ABUTH herbicidal rating: 9.0
ABUTH (Velvetleaf) [1]; rate 0.0313 kg/ha
  ABUTH herbicidal rating: 9.0
ABUTH (Velvetleaf) [1]; rate 0.0625 kg/ha
  ABUTH herbicidal rating: 9.0
ABUTH (Velvetleaf) [1]; rate 0.1250 kg/ha
  ABUTH herbicidal rating: 9.0
AMBEL (Ragweed, Common); rate 0.0158 kg/ha
  AMBEL herbicidal rating: 6.0
AMBEL (Ragweed, Common); rate 0.0313 kg/ha
  AMBEL herbicidal rating: 9.0
AMBEL (Ragweed, Common); rate 0.0625 kg/ha
  AMBEL herbicidal rating: 9.0
AMBEL (Ragweed, Common); rate 0.1250 kg/ha
  AMBEL herbicidal rating: 9.0
ECHCG (Barnyardgrass); rate 0.0158 kg/ha
  ECHCG herbicidal rating: 2.0
ECHCG (Barnyardgrass); rate 0.0313 kg/ha
  ECHCG herbicidal rating: 9.0
ECHCG (Barnyardgrass); rate 0.0625 kg/ha
  ECHCG herbicidal rating: 9.0
ECHCG (Barnyardgrass); rate 0.1250 kg/ha
  ECHCG herbicidal rating: 9.0
SETVI (Foxtail, Green) [2]; rate 0.0158 kg/ha
  SETVI herbicidal rating: 2.0
SETVI (Foxtail, Green) [2]; rate 0.0313 kg/ha
  SETVI herbicidal rating: 9.0
SETVI (Foxtail, Green) [2]; rate 0.0625 kg/ha
  SETVI herbicidal rating: 9.0
SETVI (Foxtail, Green) [2]; rate 0.1250 kg/ha
  SETVI herbicidal rating: 9.0
[3]; rate 0.0158 kg/ha
  GLXMAW herbicidal rating: 7.0
[3]; rate 0.0313 kg/ha
  GLXMAW herbicidal rating: 8.5
[3]; rate 0.0625 kg/ha
  GLXMAW herbicidal rating: 8.5
[3]; rate 0.1250 kg/ha
  GLXMAW herbicidal rating: 9.0
ORYSAT (Rice, Tebonnet); rate 0.0158 kg/ha
  ORYSAT herbicidal rating: 3.5
ORYSAT (Rice, Tebonnet); rate 0.0313 kg/ha
  ORYSAT herbicidal rating: 5.0
ORYSAT (Rice, Tebonnet); rate 0.0625 kg/ha
  ORYSAT herbicidal rating: 5.5
ORYSAT (Rice, Tebonnet); rate 0.1250 kg/ha
  ORYSAT herbicidal rating: 5.5
[4]; rate 0.0158 kg/ha
  TRZAWR herbicidal rating: 3.5
[4]; rate 0.0313 kg/ha
  TRZAWR herbicidal rating: 7.0
[4]; rate 0.0625 kg/ha
  TRZAWR herbicidal rating: 8.0
[4]; rate 0.1250 kg/ha
  TRZAWR herbicidal rating: 7.5
ABUTH (Velvetleaf) [5]; rate 0.0156 kg/ha
  Preemergence herbicidal rating ABUTH: 5.0
ABUTH (Velvetleaf) [5]; rate 0.0313 kg/ha
  Preemergence herbicidal rating ABUTH: 8.0
ABUTH (Velvetleaf) [5]; rate 0.0625 kg/ha
  Preemergence herbicidal rating ABUTH: 9.0
ABUTH (Velvetleaf) [5]; rate 0.1250 kg/ha
  Preemergence herbicidal rating ABUTH: 9.0
ABUTH (Velvetleaf) [5]; rate 0.2500 kg/ha
  Preemergence herbicidal rating ABUTH: 9.0
ABUTH (Velvetleaf) [5]; rate 0.5000 kg/ha
  Preemergence herbicidal rating ABUTH: 9.0
CASOB (Sicklepod); rate 0.0156 kg/ha
  Preemergence herbicidal rating CASOB: 0.0
CASOB (Sicklepod); rate 0.0313 kg/ha
  Preemergence herbicidal rating CASOB: 0.0
CASOB (Sicklepod); rate 0.0625 kg/ha
  Preemergence herbicidal rating CASOB: 0.0
CASOB (Sicklepod); rate 0.1250 kg/ha
  Preemergence herbicidal rating CASOB: 0.5
CASOB (Sicklepod); rate 0.2500 kg/ha
  Preemergence herbicidal rating CASOB: 0.5
CASOB (Sicklepod); rate 0.5000 kg/ha
  Preemergence herbicidal rating CASOB: 3.0
SETVI (Foxtail, Green) [6]; rate 0.0156 kg/ha
  Preemergence herbicidal rating SETVI: 0.0
SETVI (Foxtail, Green) [6]; rate 0.0313 kg/ha
  Preemergence herbicidal rating SETVI: 0.5
SETVI (Foxtail, Green) [6]; rate 0.0625 kg/ha
  Preemergence herbicidal rating SETVI: 0.5
SETVI (Foxtail, Green) [6]; rate 0.1250 kg/ha
  Preemergence herbicidal rating SETVI: 6.0
SETVI (Foxtail, Green) [6]; rate 0.2500 kg/ha
  Preemergence herbicidal rating SETVI: 7.5
SETVI (Foxtail, Green) [6]; rate 0.5000 kg/ha
  Preemergence herbicidal rating SETVI: 9.0
MOOVA (Monochoria); 0.0313 kg/ha
  MOOVA herbicidal effect rating: 9.0
MOOVA (Monochoria); 0.0625 kg/ha
  MOOVA herbicidal effect rating: 9.0
MOOVA (Monochoria); 0.1250 kg/ha
  MOOVA herbicidal effect rating: 9.0
MOOVA (Monochoria); 0.2500 kg/ha
  MOOVA herbicidal effect rating: 9.0
[7]; 0.0313 kg/ha
  SAGPY herbicidal effect rating: 3.0
[7]; 0.0625 kg/ha
  SAGPY herbicidal effect rating: 4.0
[7]; 0.1250 kg/ha
  SAGPY herbicidal effect rating: 4.0
[7]; 0.2500 kg/ha
  SAGPY herbicidal effect rating: 4.0
CYPIR (Rice Flatsedge); Rate 0.0313 kg/ha
  Herbicidal rating CYPIR: 6.0
CYPIR (Rice Flatsedge); Rate 0.0625 kg/ha
  Herbicidal rating CYPIR: 6.0
CYPIR (Rice Flatsedge); Rate 0.1250 kg/ha
  Herbicidal rating CYPIR: 7.0
CYPIR (Rice Flatsedge); Rate 0.2500 kg/ha
  Herbicidal rating CYPIR: 7.0
[8]; Rate 0.0313 kg/ha
  Herbicidal rating SAGPY: 3.0
[8]; Rate 0.0625 kg/ha
  Herbicidal rating SAGPY: 4.0
[8]; Rate 0.1250 kg/ha
  Herbicidal rating SAGPY: 4.0
[8]; Rate 0.2500 kg/ha
  Herbicidal rating SAGPY: 4.0
